The values that follow come from ChEMBL document CHEMBL4145603, “Iridoids from the Roots of Patrinia scabra and Their Inhibitory Potential on LPS-Induced Nitric Oxide Production” (J Nat Prod, 2018).

The assay concerns RAW264.7. As to the kind of experiment: Inhibition of LPS-stimulated nitric oxide production in […] RAW264.7 cells after 24 hrs by Griess assay. Type of assay: functional, cell-based. The settings on record: Mus musculus; for IC50: RAW264.7, 24 h. A general note: The Griess reaction detects nitrite, a stable product of nitric oxide.

By IC50 is commonly meant the midpoint of a concentration-inhibition curve. A lower IC50 goes with greater potency. For `CC(C)CC(=O)OCC1=COC=C2C1=CC(=O)[C@]2(O)CCl`, 27.6 µM corresponded to half-maximal inhibition (IC50).

For `CC(C)CC(=O)OCC1=CO[C@H](OC(=O)CC(C)C)[C@@H]2[C@@](O)(COC(=O)CC(C)C)[C@H](O)C[C@]12O`, the IC50 was 26 µM.

In the case of `CC(C)CC(=O)OCC1=CO[C@H](OC(=O)CC(C)C)[C@H]2C1(O)C[C@@H](O)[C@]2(O)COC(=O)CC(C)C` (some centres undefined), the inhibition entry is “Dose-dependent effect” and the concentration for half-maximal inhibition (IC50) turned out to be 14.7 µM.

Consider `CC(C)CC(=O)OCC1=CO[C@@H](OC(=O)CC(C)C)[C@H]2C1=C[C@H](O)[C@]2(O)CO`, for which the IC50 was greater than 50 µM.

Take `COc1cc([C@@H](O)[C@@H](COC(=O)CC(C)C)Oc2c(O)cc(/C=C/COC(=O)CC(C)C)cc2OC)cc(OC)c1O`: the inhibition result is “Dose-dependent effect” and the IC50 was found to be 17.8 µM.

Regarding `CC(C)CC(=O)OCC1=COC=C2C1=CC(=O)[C@]2(O)COC(=O)CC(C)C`, the inhibition result is “Dose-dependent effect” and the midpoint of inhibition, the IC50, lay at 17.1 µM.
